Data published in paper PMC2215728 (The Journal of General Physiology, 1978).
Read-outs that look alike come from different tables or passages of the source.

What was measured:
[1] = test system: everted segments of rat jejunum; test: Influx of weak electrolytes into everted segments of rat jejunum in vitro; settings: for Influx Jejunum: Table III; for Resistance Jejunum Unstirred layer: Table V, calculated as d/DSc; for Ratio of influx and nonionized concentration: J(1 + 10a)/C
[2] = Table III, cited from earlier work
[3] = test system: everted segments of rat ileum; test: Influx of weak electrolytes into everted segments of rat ileum in vitro; settings: for Influx Ileum: Table III; for Resistance Ileum Unstirred layer: Table V, calculated as d/DSc
[4] = Partition in two-phase aqueous/organic solvent; type: physicochemical; settings: heptane:aqueous partition of nonionized form
[5] = test system: everted segments of rat ileum
[6] = test system: everted segments of rat jejunum
[7] = 0.1 mM solution, observed influx increased by a factor of 10
[8] = 1 mM, pH 7.40, 1 min, 37C, mean SE (n)
[9] = Table II, everted segments (region not stated), pH 7.4
[10] = Table I, everted rat jejunum, 1 mM solution, second weak electrolyte (10 mM): Benzylamine
[11] = Table I, everted rat jejunum, 1 mM solution, second weak electrolyte (10 mM): Pentanoic acid
[12] = Table I, everted rat jejunum, 1 mM solution, second weak electrolyte (10 mM): c-Hexylamine
[13] = Table I, everted rat jejunum, 1 mM solution, second weak electrolyte (10 mM): Benzoic acid

SMILES | Resistance Jejunum Unstirred layer [1] [cm-3.min.100 mg dry wt] | Influx Ileum [3, 8] [nmol.100mg dry wt-1.min-1] | Resistance Ileum Unstirred layer [3] | Influx Jejunum [1, 8] [nmol.100mg dry wt-1.min-1] | further results
CCCCCCCCCCN [Decylamine] | 2.78 |  |  |  | Influx Jejunum [1, 7]: 264 nmol.100mg dry wt-1.min-1
CC(C)N [2-Amino propane] | 1.47 | 4 | 1.54 cm-3.min.100 mg dry wt | 6 | pKa ([2]; ref Ref. 6): 10.63; ratio of kni Hept values for 2-amino-propane and propionic acid [4]: greater than 20
CCCCCC(=O)O [Hexanoic, HEXANOIC ACID] | 2.13 | 29 | 2.24 cm-3.min.100 mg dry wt | 73 | 
CCCCCCCC(=O)O [Octanoic, Octanoic acid] | 2.47 | 56 | 2.60 cm-3.min.100 mg dry wt | 147 | Influx [1, 9]: 145; Influx ([1]; Table II, everted segments (region not stated), pH 7.9): 60; Influx ([1]; Table II, everted segments (region not stated), pH 8.4): 15
O=C(O)C(c1ccccc1)c1ccccc1 [Diphenylacetic] | 2.81 | 7 | 2.95 cm-3.min.100 mg dry wt | 14 | pKa ([2]; ref Ref. 6): 3.94
CCCC(=O)O [Butyric] |  | 11 |  | 12 | 
CCCCCCC(=O)O [Heptanoic] | 2.31 | 50 | 2.43 cm-3.min.100 mg dry wt | 81 | pKa ([2]; ref Ref. 6): 4.89
CN1C(=O)NC(=O)C(C)(C2=CCCCC2)C1=O (centres unmarked) [Hexobarbital] | 2.86 | 327 | 3.00 cm-3.min.100 mg dry wt | 348 | pKa ([2]; ref Bush (1)): 8.20
CCC(=O)C(CC(C)N(C)C)(c1ccccc1)c1ccccc1 (centres unmarked) [Methadone] | 3.74 | 259 | 3.93 cm-3.min.100 mg dry wt | 272 | 
CC(C)CC(=O)O [iso-Pentanoic] |  | 20 |  | 21 | Resistance Ileum Empirical [5]: 5.00x 101; Resistance Ileum Unstirred layer [5]: 2.05; Resistance Jejunum Empirical [6]: 4.76x 101; Resistance Jejunum Unstirred layer [6]: 1.95
CCCCCCCO [heptanol] |  |  |  |  | influx of heptanol with pH of incubation saline ([1]; preliminary experiments, range of pH values 7.5-8.5): constant
C=CCN1CC[C@]23c4c5ccc(O)c4O[C@H]2C(=O)CC[C@@]3(O)[C@H]1C5 [Naloxone] | 3.38 | 263 |  | 286 | pKa ([2]; ref Taylor (11)): 6.93
O=C(O)c1ccccc1 [Benzoic, Benzoic acid] |  | 15 |  | 17 | Influx [1, 10]: 19 nmol.100mg dry wt-1.min-1; Influx [1, 11]: 21 nmol.100mg dry wt-1.min-1; Influx [1, 12]: 17 nmol.100mg dry wt-1.min-1
CC(=O)O [Acetic, acetic acid] |  | 3 |  | 0 | 
CC(C)C(=O)O [iso-Butyric] | 1.75 | 13 | 1.84 cm-3.min.100 mg dry wt | 10 | 
CCCCC(=O)O [Pentanoic, Pentanoic acid] | 1.95 | 18 | 2.05 cm-3.min.100 mg dry wt | 22 | Influx [1, 13]: 22 nmol.100mg dry wt-1.min-1; Influx [1, 10]: 18 nmol.100mg dry wt-1.min-1; Influx [1, 12]: 20 nmol.100mg dry wt-1.min-1
NCc1ccccc1 [Benzylamine] | 1.92 | 155 | 2,02 cm-3.min.100 mg dry wt | 220 | Influx [1, 13]: 221 nmol.100mg dry wt-1.min-1; Influx [1, 12]: 211 nmol.100mg dry wt-1.min-1
NC1CCCCC1 [c-Hexylamine] | 1.95 | 6 | 2.05 cm-3.min.100 mg dry wt | 12 | pKa ([2]; ref Ref. 6): 10.66; Influx [1, 13]: 9 nmol.100mg dry wt-1.min-1; Influx [1, 10]: 12 nmol.100mg dry wt-1.min-1; Influx [1, 11]: 9 nmol.100mg dry wt-1.min-1; Influx [1, 9]: 12; Ratio of influx and nonionized concentration ([1]; Table II, pH 7.4): 22; Ratio of influx and nonionized concentration ([1]; Table II, pH 7.9): 24
CCCCCCCCCC(=O)O [Decanoic, decanoic acid] | 2.79 |  | 2.93 cm-3.min.100 mg dry wt |  | Influx Ileum [3, 7]: 158 nmol.100mg dry wt-1.min-1; Influx Jejunum [1, 7]: 361 nmol.100mg dry wt-1.min-1
CCC(=O)O [Propionic, propionic acid] | 1.53 | 9 | 1.61 cm-3.min.100 mg dry wt | 6 | 
O=C(O)Cc1ccccc1 [Phenylacetic, PHENYLACETIC ACID] | 2.16 | 15 | 2.27 cm-3.min.100 mg dry wt | 24 | 
CCC1(c2ccccc2)C(=O)NC(=O)NC1=O [Phenobarbital] | 2.81 |  | 2.95 cm-3.min.100 mg dry wt | 321 | 
